Molecular target: T1, human TLR8 (Homo sapiens, UniProt Q9NR97)
T1 construct: host or cells: HEK293
T1 sequence (Q9NR97 27-1041): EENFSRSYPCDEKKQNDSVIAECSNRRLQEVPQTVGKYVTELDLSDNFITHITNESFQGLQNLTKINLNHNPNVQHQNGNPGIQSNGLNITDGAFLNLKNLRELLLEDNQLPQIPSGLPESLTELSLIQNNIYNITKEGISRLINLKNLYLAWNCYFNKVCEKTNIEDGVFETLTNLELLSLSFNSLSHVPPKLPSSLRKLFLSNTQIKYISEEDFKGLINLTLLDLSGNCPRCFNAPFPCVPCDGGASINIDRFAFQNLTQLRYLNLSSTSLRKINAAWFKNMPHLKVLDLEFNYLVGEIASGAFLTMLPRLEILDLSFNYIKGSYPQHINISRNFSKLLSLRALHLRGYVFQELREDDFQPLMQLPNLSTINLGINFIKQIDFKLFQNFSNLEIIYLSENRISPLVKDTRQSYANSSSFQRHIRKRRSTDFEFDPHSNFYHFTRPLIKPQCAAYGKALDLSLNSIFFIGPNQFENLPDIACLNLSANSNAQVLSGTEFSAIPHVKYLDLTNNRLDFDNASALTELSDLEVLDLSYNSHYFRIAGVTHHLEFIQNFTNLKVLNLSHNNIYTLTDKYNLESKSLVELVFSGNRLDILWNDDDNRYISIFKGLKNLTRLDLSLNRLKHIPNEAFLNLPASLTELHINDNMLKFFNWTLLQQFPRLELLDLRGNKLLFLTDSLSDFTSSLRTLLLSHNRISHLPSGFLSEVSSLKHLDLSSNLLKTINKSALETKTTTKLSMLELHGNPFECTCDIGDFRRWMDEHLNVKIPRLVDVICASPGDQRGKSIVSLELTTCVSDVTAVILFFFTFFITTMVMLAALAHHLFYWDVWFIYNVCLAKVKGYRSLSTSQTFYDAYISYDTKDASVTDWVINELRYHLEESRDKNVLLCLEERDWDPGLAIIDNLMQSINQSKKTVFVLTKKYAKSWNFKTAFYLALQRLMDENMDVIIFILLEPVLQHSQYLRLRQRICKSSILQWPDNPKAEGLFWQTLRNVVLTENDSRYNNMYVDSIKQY
Test: HEK293 SEAP reporter assay, other TLRs (Biological Example 3)
Format: cell-based
Details: 16 hrs, * = Estimated
Excerpt: In this example, the activity of the Compound 1 to stimulate different human and mouse TLR pathways was investigated on HEK293 cells transfected with inducible SEAP (secreted embryonic alkaline phosphatase) reporter genes and also expressing different human TLRs (TLR2, TLR3, TLR4, TLR5, TLR7, TLR8, TLRS) or mouse TLRs (TLR2, TLR3, TLR4, TLR5, TLR7, TLR8, TLR13).
HEK293 reporter cell lines were purchased from Invivogen and cell lines were maintained in manufacture recommended culture medium with required supplemental antibiotics. On the day of assay, the cells were harvested with Accutase and counted by the Vi-CELL Cell Viability Analyzers. Cells were re-suspended in HEK blue detection medium and a total of 10000 cells were seeded in each well of a 384-well flat bottom plate. […] Assay plates were cultured at 37° C. in a CO2 incubator for 16 hrs. HEK-Blue™ Detection medium changes to a purple/blue color in the presence of secreted SEAP, which can be detected by spectrophotometry at 620-655 nm. Data was fitted with non-linear regression analysis, using a log(inhibitor) vs. response-variable slope, 3-parameter fit with GraphPad Prism.

SMILES: CCCCn1nc2c(N)nc3ccccc3c2c1Cc1ccc(CN)cc1 [Compound 1, 1-(4-(aminomethyl)benzyl)-2-butyl-2H-pyrazolo[3,4-c]quinolin-4-amine]
- EC50: ~401 nM

Reference: patent US20220259202A1, “1-(4-(AMINOMETHYL)BENZYL)-2-BUTYL-2H-PYRAZOLO[3,4-C]QUINOLIN-4-AMINE DERIVATIVES AND RELATED COMPOUNDS AS TOLL-LIKE RECEPTOR (TLR) 7/8 AGONISTS, AS WELL AS ANTIBODY DRUG CONJUGATES THEREOF FOR USE IN CANCER THERAPY AND DIAGNOSIS” (SUTRO BIOPHARMA, INC., priority 2019, published 2022)
